Reference: ChEMBL document CHEMBL1201862, “PubChem BioAssay data set” (2004)
Active and inactive are the calls of the source.

How the values were obtained:
[1] = target: T1, Heat shock factor protein 1 (Mus musculus, UniProt P38532); assay: decrease of HSF1-responsive luciferase luminescence – cell-based, NIH3T3, dose retest, confirmation (AID 2382); assay type: functional;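 note: NIH3T3 fibroblasts with HSF1-driven luciferase reporter stressed by proteasome inhibitor MG132; luminescence from HSF1-driven luciferase expression after 8 hours of MG132 stress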
T1 sequence (P38532 whole entry): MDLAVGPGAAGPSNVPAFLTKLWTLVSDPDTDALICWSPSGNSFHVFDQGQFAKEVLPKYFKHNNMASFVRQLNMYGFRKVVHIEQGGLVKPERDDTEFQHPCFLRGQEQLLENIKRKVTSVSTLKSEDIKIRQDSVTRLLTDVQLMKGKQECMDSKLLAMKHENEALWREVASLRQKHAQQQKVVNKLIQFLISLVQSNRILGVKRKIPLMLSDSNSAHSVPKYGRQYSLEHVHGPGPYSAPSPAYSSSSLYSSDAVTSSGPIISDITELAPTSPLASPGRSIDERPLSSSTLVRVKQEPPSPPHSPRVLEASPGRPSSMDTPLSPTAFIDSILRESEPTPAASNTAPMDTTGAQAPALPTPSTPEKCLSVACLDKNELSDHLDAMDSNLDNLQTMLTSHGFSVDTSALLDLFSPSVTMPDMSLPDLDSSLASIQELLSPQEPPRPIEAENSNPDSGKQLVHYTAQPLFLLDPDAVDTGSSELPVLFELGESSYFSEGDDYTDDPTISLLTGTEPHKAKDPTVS

[2] = target: Luciferin 4-monooxygenase (Photinus pyralis, UniProt P08659); assay: inhibition of purified Photinus pyralis luciferase – biochemical, luminescence, dose response (AID 1891)
Chain of Luciferin 4-monooxygenase (P08659 whole entry): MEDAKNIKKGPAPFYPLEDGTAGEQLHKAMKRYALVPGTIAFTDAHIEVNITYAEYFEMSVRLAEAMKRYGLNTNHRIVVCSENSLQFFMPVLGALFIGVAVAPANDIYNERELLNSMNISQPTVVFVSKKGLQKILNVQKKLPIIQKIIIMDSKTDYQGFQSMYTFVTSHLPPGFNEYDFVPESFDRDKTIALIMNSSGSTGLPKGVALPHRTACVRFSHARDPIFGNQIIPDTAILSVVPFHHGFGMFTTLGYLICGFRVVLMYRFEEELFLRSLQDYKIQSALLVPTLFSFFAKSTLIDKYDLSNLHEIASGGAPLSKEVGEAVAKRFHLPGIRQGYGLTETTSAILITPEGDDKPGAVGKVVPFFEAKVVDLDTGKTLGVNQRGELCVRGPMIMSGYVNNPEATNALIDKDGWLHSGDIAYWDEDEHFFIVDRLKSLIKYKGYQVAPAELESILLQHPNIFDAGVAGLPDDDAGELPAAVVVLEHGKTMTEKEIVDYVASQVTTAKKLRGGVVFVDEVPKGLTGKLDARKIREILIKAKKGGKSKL

[3] = Luminescence Cell-Based Dose Confirmation HTS to Identify Inhibitors of Platelet Dense Granule Release. [Related pubchem assays: 1663 (Primary HTS), 1678 (Summary of Project)]; assay type: functional
[4] = Luminescence-based counterscreen assay for KLF5 inhibitors: dose response cell-based high throughput screening assay to identify cytotoxic compounds using the IEC-6 intestinal epithelial cell line. [Related pubchem assays: 1700 (Primary screen.), 1834 (Confirmation screen.), 1858 (Summary AID.), 1905 (Counterscreen.)]; assay type: functional
[5] = target: COUP transcription factor 2 (Homo sapiens, UniProt P24468); assay: Luminescence-based cell-based high throughput dose response assay to identify inhibitors of COUP-TFII (NR2F2).; assay type: functional;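 note: HEK293 cells transiently cotransfected with COUP-TFII expression vector and reporter; luciferase reporter luminescence driven by COUP-TFII from the pX2-168 reporter plasmid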
Chain of COUP transcription factor 2 (P24468 whole entry): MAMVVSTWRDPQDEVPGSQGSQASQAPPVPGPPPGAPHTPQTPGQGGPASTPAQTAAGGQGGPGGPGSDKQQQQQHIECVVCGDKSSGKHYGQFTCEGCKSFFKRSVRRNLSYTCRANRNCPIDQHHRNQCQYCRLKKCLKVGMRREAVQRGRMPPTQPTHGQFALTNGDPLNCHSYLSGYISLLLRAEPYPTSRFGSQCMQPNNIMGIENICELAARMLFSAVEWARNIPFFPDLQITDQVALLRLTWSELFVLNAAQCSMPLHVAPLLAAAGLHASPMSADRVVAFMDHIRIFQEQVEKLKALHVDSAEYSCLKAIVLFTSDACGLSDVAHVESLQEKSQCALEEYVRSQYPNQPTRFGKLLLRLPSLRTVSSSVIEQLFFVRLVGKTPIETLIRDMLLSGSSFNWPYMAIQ

HeLa = assay: viability loss in HeLa cells – cell-based, ATP luminescence, cherry-pick samples, cytotoxicity control, dose response (AID 687004); assay type: functional; settings: Homo sapiens
HEK293 = assay: viability loss in HEK293T cells – cell-based, ATP luminescence, cherry-pick samples, cytotoxicity control, dose response (AID 687005); assay type: functional; settings: Homo sapiens;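 note: cells exposed to compound for 48 hours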
[6] = HEK293 Cytotoxicity Assay Measured in Cell-Based System Using Plate Reader - 7071-01_Inhibitor_Dose_CherryPick_Activity_Set2.; assay type: functional
Paired box protein Pax-8 = Paired box protein Pax-8 (Homo sapiens, UniProt Q06710); assay: PAX8 transcriptional activity inhibition in RMG-I – RMG-I cells, luciferase, cherry-pick, dose response (AID 687027); assay type: functional, cell-based;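 note: luciferase reporter driven by Pax8 target thyroperoxidase promoter measured by SteadyGlo luminescence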
Chain of Paired box protein Pax-8 (Q06710 whole entry): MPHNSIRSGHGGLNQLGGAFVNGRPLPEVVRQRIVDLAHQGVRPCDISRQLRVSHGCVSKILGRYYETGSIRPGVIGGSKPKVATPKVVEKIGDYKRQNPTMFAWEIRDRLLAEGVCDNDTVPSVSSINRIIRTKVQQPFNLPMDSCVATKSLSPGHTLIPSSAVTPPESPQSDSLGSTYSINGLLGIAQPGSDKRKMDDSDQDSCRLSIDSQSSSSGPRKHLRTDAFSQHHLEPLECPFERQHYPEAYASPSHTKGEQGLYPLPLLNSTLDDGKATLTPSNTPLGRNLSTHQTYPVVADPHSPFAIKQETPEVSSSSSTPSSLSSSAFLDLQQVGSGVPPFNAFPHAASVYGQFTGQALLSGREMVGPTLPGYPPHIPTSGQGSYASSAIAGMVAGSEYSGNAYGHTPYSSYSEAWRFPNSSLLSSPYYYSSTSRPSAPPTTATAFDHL

[7] = OVCAR-3 cell viability loss – plate reader, dry powder samples, PAX8 inhibitor project, dose response (AID 743044); assay type: functional, cell-based
[8] = IGROV1 cell killing – plate reader, dry powder samples, PAX8 inhibitor project, dose response (AID 743043); assay type: functional, cell-based; settings: IGROV-1
[9] = general cell-killing toxicity readout – plate reader, dry powder samples, cytotoxicity control for PAX8 inhibitor project, dose response (AID 743021); assay type: functional, cell-based
[10] = OVCAR8 cell viability loss – plate reader, dry powder samples, PAX8 project, dose response (AID 743197); assay type: functional, cell-based; settings: OVCAR-8

Q: What does the source list for `COc1ccc(C(=O)Nc2ccccc2C(=O)N/N=C/c2ccc(O)c(OC)c2)cc1`?
A: EC50 [1]: < 0.16 µM (active); EC50 [2]: 0.149 µM (active); EC50 [3]: 0.156 µM (active); IC50 [4]: > 39.8 µM (not active); IC50 [5]: > 9.49 µM (active)

Q: With `C[C@@H]1CN([C@H](C)CO)S(=O)(=O)c2ccc(C#Cc3ccc(F)cc3)cc2O[C@H]1CN(C)C(=O)NC1CCCC1` as the compound, how does the AC50 (HeLa) read?
A: 34.7 µM (active)

Q: What about the AC50 (HEK293) of the same compound?
A: 4.91 µM (active)

Q: What about the AC50 [6] of the same compound?
A: 4.91 µM (active)

Q: Which AC50 (HEK293) does the source give for `COc1cccc(S(=O)(=O)Nc2ccc3c(c2)[C@@H]2C[C@@H](CC(=O)NCc4cccc(F)c4)O[C@H](CO)[C@@H]2O3)c1` here?
A: 27.7 µM (active)

Q: What about the AC50 [6] of the same compound?
A: 27.7 µM (active)

Q: Which AC50 (Paired box protein Pax-8) does the source give for `C[C@@H]1CCCCO[C@H](CN(C)Cc2ccc(C(F)(F)F)cc2)[C@@H](C)CN([C@@H](C)CO)C(=O)c2cc(NC(=O)c3ccccc3)ccc2O1` here?
A: 6.57 µM (active)

Q: What about the AC50 [7] of the same compound?
A: 10.8 µM (active)

Q: What about the AC50 [8] of the same compound?
A: 26.2 µM (active)

Q: What about the AC50 [9] of the same compound?
A: 52.2 µM (active)

Q: And the AC50 [10]?
A: 21.5 µM (active)
